Test results as given in patent US6642251B1, “Geometrically restricted 2-indolinone derivatives as modulators of protein kinase activity” (Sugen, Inc., priority 1998, dated 2003).

Test system: A375 cells (melanoma)
Experiment: A375 sc xenograft animal model
Assay type: in vivo, athymic mice (BALB/c, nu/nu)
Conditions: for % inhibition: vs vehicle
Source text: The ability of human tumors to grow as xenografts in athymic mice (e.g., Balb/c, nu/nu) provides a useful in vivo model for studying the biological response to therapies for human tumors. Since the first successful xeno-transplantation of human tumors into athymic mice, (Rygaard and Poylsen, 1969, Acta Pathol. Microbial. Scand., 77:758-760), many different human tumor cell lines (e.g., mammary, lung, genitourinary, gastro-intestinal, head and neck, glioblastoma, bone, and malignant melanomas) have been transplanted and successfully grown in nude mice. The following assays may be used to determine the level of activity, specificity and effect of the different compounds of the present invention. Three general types of assays are useful for evaluating compounds: cellular/catalytic, cellular/biological and in vivo. The object of the cellular/catalytic assays is to determine the effect of a compound on the ability of a TK to phosphorylate tyrosines on a known substrate in a cell. The object of the cellular/biological assays is to determine the effect of a compound on the biological response stimulated by a TK in a cell. The object of the in vivo assays is to determine the effect of a compound in an animal model of a particular disorder such as cancer.
Suitable cell lines for subcutaneous xenograft experiments include C6 cells (glioma, ATCC #CCL 107), A375 cells (melanoma, ATCC #CRL 1619), A431 cells (epidermoid carcinoma, ATCC #CRL 1555), Calu 6 cells (lung, ATCC #HTB 56), PC3 cells (prostate, ATCC #CRL 1435), SKOV3TP5 cells and NIH 3T3 fibroblasts genetically engineered to overexpress EGFR, PDGFR, IGF-1R or any other test kinase. The following protocol can be used to perform xenograft experiments:
Female athymic mice (BALB/c, nu/nu) are obtained from Simonsen Laboratories (Gilroy, Calif.). All animals are maintained under clean-room conditions in Micro-isolator cages with Alpha-dri bedding. They receive sterile rodent chow and water ad libitum.
Cell lines are grown in appropriate medium (for example, MEM, DMEM, Ham's F10, or Ham's F12 plus 5%-10% fetal bovine serum (FBS) and 2 mM glutamine (GLN)). All cell culture media, glutamine, and fetal bovine serum are purchased from Gibco Life Technologies (Grand Island, N.Y.) unless otherwise specified. All cells are grown in a humid atmosphere of 90-95% air and 5-10% CO2 at 37° C. All cell lines are routinely subcultured twice a week and are negative for mycoplasma as determined by the Mycotect method (Gibco).
Cells are harvested at or near confluency with 0.05% Trypsin-EDTA and pelleted at 450×g for 10 min. Pellets are resuspended in sterile PBS or media (without FBS) to a particular concentration and the cells are implanted into the hindflank of the mice (8-10 mice per group, 2-10×10^6 cells/animal). Tumor growth is measured over 3 to 6 weeks using venier calipers. Tumor volumes are calculated as a product of length×width×height unless otherwise indicated. P values are calculated using the Students t-test. Test compounds in 50-100 μL excipient (DMSO, or VPD:D5W (U.S. Pat. No. 5,610,173 to Sxhwartz, et al.), can be delivered by IP injection at different concentrations generally starting at day one after implantation.

COc1ccc2c(c1)C(CC(=O)[O-])CC2=C1C(=O)Nc2ccccc21.[Na+] (stereo not drawn) [Compound 13, [6-Methoxy-3-(2-oxo-1,2-dihydroindol-3-ylidene)-indan-1-yl]acetic Acid Sodium Salt]
Average Tumor Volume (50 mg/kg/day): 569.9 mm3 | % inhibition (50 mg/kg/day): 24.6% | Average Tumor Volume (100 mg/kg/day): 324.4 mm3 | % inhibition (100 mg/kg/day): 57.1% | Average Tumor Volume (200 mg/kg/day): 278.8 mm3 | % inhibition (200 mg/kg/day): 63.1%
